Reference: patent US20250243488A1, “METHODS OF MODULATING PROGRANULIN EXPRESSION USING ANTISENSE OLIGONUCLEOTIDES TARGETING REGULATORY RNAS” (Camp4 Therapeutics Corporation, priority 2022, published 2025)
Oligonucleotides are written 5' to 3', each unit as a sugar letter and its base; * is a phosphorothioate linkage, no mark a phosphodiester; rarer units and linkages stand in square brackets, end groups in braces. Plain capitals give the bases only. e = 2'-O-(2-methoxyethyl) (MOE); [5mC] = 5-methylcytosine

Tested on: GRN mRNA
Experiment: GRN mRNA qPCR in SK-N-AS cells transfected with ASOs
Type: cell-based, human
Conditions: SK-N-AS; for hGRN mRNA FC: Table 9, 48 hours post-transfection
How it was run: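 Fold change in GRN mRNA, by qPCR with GAPDH/PPIA housekeeping normalization, referenced to steric non-targeting control ASO(s) such as CO-1589. ASOs were transfected into SK-N-AS neuroblastoma cells in dose titrations (20 to 160 nM initially). Cells were harvested 48 hours post-transfection.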

Substance	hGRN mRNA FC (120 nM, normalized to CO-1589) [FC]	other results
CO-4637: ASO designed to target intergenic enhancers (eRNA) (antisense eT*eA*eA*eG*eG*eT*eG*eT*eA*eG*eG*eA*e[5mC]*eA*eG*eT*e[5mC]*eT*eG*eA)	0.9	hit identification (GRN mRNA dose escalation) (3.75 nM to 120 nM, 48 hours): initial hits; 3.75 nM FC (GRN mRNA) (Table 10, 3.75 nM, 48 hours, normalized to CO-1589): 1.1 FC; 7.5 nM FC (GRN mRNA) (Table 10, 7.5 nM, 48 hours, normalized to CO-1589): 1.1 FC; 15 nM FC (GRN mRNA) (Table 10, 15 nM, 48 hours, normalized to CO-1589): 1.2 FC; 30 nM FC (GRN mRNA) (Table 10, 30 nM, 48 hours, normalized to CO-1589): 1.1 FC; 60 nM FC (GRN mRNA) (Table 10, 60 nM, 48 hours, normalized to CO-1589): 1.2 FC; 120 nM FC (GRN mRNA) (Table 10, 120 nM, 48 hours, normalized to CO-1589): 1.3 FC
CO-4638: ASO designed to target intergenic enhancers (eRNA) (antisense eT*eT*eG*eA*eT*eA*eG*eA*eT*eG*eG*e[5mC]*eA*eG*eG*eT*e[5mC]*eA*eG*eG)	1.0	–
CO-4639: ASO designed to target intergenic enhancers (eRNA) (antisense eG*eA*eA*eA*eT*eT*eT*eA*eT*eG*e[5mC]*eG*eG*e[5mC]*e[5mC]*eA*e[5mC]*eT*eG*eT)	1.1	–
CO-4640: ASO designed to target intergenic enhancers (eRNA) (antisense eG*e[5mC]*e[5mC]*e[5mC]*e[5mC]*e[5mC]*eT*eA*eG*eA*eG*eG*eA*e[5mC]*eA*eT*eT*eT*eT*eT)	1.0	–
CO-4641: ASO designed to target intergenic enhancers (eRNA) (antisense e[5mC]*eG*eT*eT*e[5mC]*e[5mC]*eA*eA*eA*e[5mC]*eA*eG*e[5mC]*eA*eG*e[5mC]*eG*eT*eT*eA)	0.9	–
CO-4642: ASO designed to target intergenic enhancers (eRNA) (antisense eG*eG*e[5mC]*eT*eG*e[5mC]*eA*eG*eA*eT*e[5mC]*eT*e[5mC]*eT*eA*eT*eA*eT*e[5mC]*eA)	1.0	–
CO-4643: ASO designed to target intergenic enhancers (eRNA) (antisense e[5mC]*eG*eG*e[5mC]*eA*eT*eT*e[5mC]*e[5mC]*e[5mC]*eT*eG*eA*e[5mC]*e[5mC]*eT*eA*eT*e[5mC]*e[5mC])	0.9	–
CO-4644: ASO designed to target intergenic enhancers (eRNA) (antisense eG*eT*eT*eA*eA*eG*eT*eA*e[5mC]*eG*eT*eG*eA*e[5mC]*e[5mC]*e[5mC]*eT*eA*eT*e[5mC])	1.1	–
CO-4645: ASO designed to target intergenic enhancers (eRNA) (antisense eA*e[5mC]*eA*eG*e[5mC]*eA*eG*eA*eA*e[5mC]*eA*eT*e[5mC]*e[5mC]*e[5mC]*eG*eT*eG*eA*eA)	1.4	–
CO-4646: ASO designed to target intergenic enhancers (eRNA) (antisense eG*eT*eG*eT*eG*eA*eA*eA*eT*eG*eA*eT*eG*eG*eT*eA*e[5mC]*e[5mC]*eA*eG)	1.3	–
CO-4647: ASO designed to target intergenic enhancers (eRNA) (antisense e[5mC]*eT*eA*eA*eG*e[5mC]*eG*eT*eT*eT*e[5mC]*eT*e[5mC]*eT*eA*eG*eT*e[5mC]*eA*eT)	0.8	–
CO-4648: ASO designed to target intergenic enhancers (eRNA) (antisense eA*e[5mC]*eG*e[5mC]*e[5mC]*eA*eA*eA*e[5mC]*e[5mC]*e[5mC]*eT*eT*eG*eA*eT*e[5mC]*e[5mC]*eA*eG)	1.6	–
